Experimental data published in patent US12226424B2, “Target protein degradation compounds, their anti-tumor use, their intermediates and use of intermediates” (ShanghaiTech University, priority 2018, dated 2025).

system: SR cells; test: Half inhibitory concentration (IC50) on ALK-positive SR cell proliferation (CCK-8); assay type: cell-based; details: Homo sapiens, SR, 72 h, read-out: IC50 (nM)/ SR cell line
Protocol: ALK-positive SR cells (human large cell immunoblastic lymphoma) were purchased from the American Type Culture Collection (ATCC); H3122 cells (human non-small cell lung cancer) were from the Shanghai University of Science and Technology Lin Haifan's research group.
The cells used in this present disclosure were cultured in a 37° C. incubator containing 5% CO2.
SR cells were seeded in 100 μL RPMI1640 complete medium at a density of 10,000 cells/well. 100 μL of the inoculated cells were treated with 0.5 μL diluted PROTAD compound of the present disclosure to be tested at 10 successively decreasing concentrations (starting at the highest concentration of 10 μM; 5-fold serial dilutions) After the cells were treated with the drug for 72 h, cell viability was determined according to the CCK-8 reagent operating instructions. The negative control was DMSO, and the positive control was a commercial inhibitor. After CCK-8 treatment for 2 h, the value of O.D.450 was measured using a microplate reader.

Row | Structure (SMILES) | IC50 [nM]
1 | CCc1cc2c(cc1N1CCC(NC(=O)CCCSc3cccc4c3C(=O)N(C3CCC(=O)NC3=O)C4=O)CC1)C(C)(C)c1[nH]c3cc(C#N)ccc3c1C2=O (stereo not drawn) [SIAIS219013, N-(1-(3-cyano-9-ethyl-6,6-dimethyl-11-oxo-6,11-dihydro-5H-benzo[b]carbazol-8-yl)piperidin-4-yl)-4-((2-(2,6-dioxopiperidin-3-yl)-1,3-dioxoisoindolin-4-yl)thio)butanamide] | 143

same assay, conditions: Homo sapiens; SR cells, 72 h, CCK-8; read-out: IC50 on proliferation of ALK-positive cells SR

Row | Structure (SMILES) | IC50 [nM]
2 | COc1cc(N2CCC(N3CCN(C)CC3)CC2)ccc1Nc1ncc(Cl)c(Nc2ccccc2P(C)(C)=O)n1 [Brigatinib, reference compound] | 10.6

same assay, conditions: Homo sapiens; SR cells, 72 h drug treatment, CCK-8; read-out: IC50 (nM)/ SR cell line

Row | Structure (SMILES) | IC50 [nM]
3 | COc1cc(N2CCC(N3CCN(C)CC3)CC2)ccc1Nc1ncc(Cl)c(Nc2ccccc2P(C)(C)=O)n1 [Brigatinib, reference compound] | 2.1 ± 1.2
4 | CCc1cc2c(cc1N1CCN(C3CCN(C(=O)CSc4cccc5c4C(=O)N(C4CCC(=O)NC4=O)C5=O)CC3)CC1)C(C)(C)c1[nH]c3cc(C#N)ccc3c1C2=O (stereo not drawn) [SIAIS219005, 8-(4-(1-(2-((2-(2,6-dioxopiperidin-3-yl)-1,3-dioxoisoindolin-4-yl)thio)acetyl)piperidin-4-yl)piperazin-1-yl)-9-ethyl-6,6-dimethyl-11-oxo-6,11-dihydro-5H-benzo[b]carbazole-3-carbonitrile] | 8.7
5 | CCc1cc2c(cc1N1CCC(N3CCN(C(=O)CCCSc4cccc5c4C(=O)N(C4CCC(=O)NC4=O)C5=O)CC3)CC1)C(C)(C)c1[nH]c3cc(C#N)ccc3c1C2=O (stereo not drawn) [SIAIS219006, 8-(4-(4-(4-((2-(2,6-dioxopiperidin-3-yl)-1,3-dioxoisoindolin-4-yl)thio)butanoyl)piperazin-1-yl)piperidin-1-yl)-9-ethyl-6,6-dimethyl-11-oxo-6,11-dihydro-5H-benzo[b]carbazole-3-carbonitrile] | 16.4
6 | CCc1cc2c(cc1N1CCC(N3CCN(C(=O)CCCCCSc4cccc5c4C(=O)N(C4CCC(=O)NC4=O)C5=O)CC3)CC1)C(C)(C)c1[nH]c3cc(C#N)ccc3c1C2=O (stereo not drawn) [SIAIS219007, 8-(4-(4-(6-((2-(2,6-dioxopiperidin-3-yl)-1,3-dioxoisoindolin-4-yl)thio)hexanoyl)piperazin-1-yl)piperidin-1-yl)-9-ethyl-6,6-dimethyl-11-oxo-6,11-dihydro-5H-benzo[b]carbazole-3-carbonitrile] | 50.1
7 | CCc1cc2c(cc1N1CCC(NC(=O)CSc3cccc4c3C(=O)N(C3CCC(=O)NC3=O)C4=O)CC1)C(C)(C)c1[nH]c3cc(C#N)ccc3c1C2=O (stereo not drawn) [SIAIS219012, N-(1-(3-cyano-9-ethyl-6,6-dimethyl-11-oxo-6,11-dihydro-5H-benzo[b]carbazol-8-yl)piperidin-4-yl)-2-((2-(2,6-dioxopiperidin-3-yl)-1,3-dioxoisoindolin-4-yl)thio)acetamide] | 146
8 | CCc1cc2c(cc1N1CCC(NC(=O)CCCCCSc3cccc4c3C(=O)N(C3CCC(=O)NC3=O)C4=O)CC1)C(C)(C)c1[nH]c3cc(C#N)ccc3c1C2=O (stereo not drawn) [SIAIS219014, N-(1-(3-cyano-9-ethyl-6,6-dimethyl-11-oxo-6,11-dihydro-5H-benzo[b]carbazol-8-yl)piperidin-4-yl)-6-((2-(2,6-dioxopiperidin-3-yl)-1,3-dioxoisoindolin-4-yl)thio)hexanamide] | 101
9 | CCc1cc2c(cc1N1CCC(NC(=O)COCCOCCSc3cccc4c3C(=O)N(C3CCC(=O)NC3=O)C4=O)CC1)C(C)(C)c1[nH]c3cc(C#N)ccc3c1C2=O (stereo not drawn) [SIAIS219022, N-(1-(3-cyano-9-ethyl-6,6-dimethyl-11-oxo-6,11-dihydro-5H-benzo[b]carbazol-8-yl)piperidin-4-yl)-2-(2-(2-((2-(2,6-dioxopiperidin-3-yl)-1,3-dioxoisoindolin-4-yl)thio)ethoxy)ethoxy)acetamide] | 80.5
10 | COc1cc(N2CCC(NC(=O)CSc3cccc4c3CN(C3CCC(=O)NC3=O)C4=O)CC2)ccc1Nc1ncc(Cl)c(Nc2ccccc2P(C)(C)=O)n1 (stereo not drawn) [SIAIS219133, N-(1-(4-((5-chloro-4-((2-(dimethylphosphoryl)phenyl)amino)pyrimidin-2-yl)amino)-3-methoxyphenyl)piperidin-4-yl)-2-((2-(2,6-dioxopiperidin-3-yl)-1-oxoisoindolin-4-yl)thio)acetamide] | 2.9 ± 0.1
11 | COc1cc(N2CCC(NC(=O)CCSc3cccc4c3CN(C3CCC(=O)NC3=O)C4=O)CC2)ccc1Nc1ncc(Cl)c(Nc2ccccc2P(C)(C)=O)n1 (stereo not drawn) [SIAIS219134, N-(1-(4-((5-chloro-4-((2-(dimethylphosphoryl)phenyl)amino)pyrimidin-2-yl)amino)-3-methoxyphenyl)piperidin-4-yl)-3-((2-(2,6-dioxopiperidin-3-yl)-1-oxoisoindolin-4-yl)thio)propanamide] | 2.7 ± 0.8
12 | COc1cc(N2CCC(NC(=O)CCCSc3cccc4c3CN(C3CCC(=O)NC3=O)C4=O)CC2)ccc1Nc1ncc(Cl)c(Nc2ccccc2P(C)(C)=O)n1 (stereo not drawn) [SIAIS219135, N-(1-(4-((5-chloro-4-((2-(dimethylphosphoryl)phenyl)amino)pyrimidin-2-yl)amino)-3-methoxyphenyl)piperidin-4-yl)-4-((2-(2,6-dioxopiperidin-3-yl)-1-oxoisoindolin-4-yl)thio)butanamide] | 0.33 ± 0.02
13 | COc1cc(N2CCC(NC(=O)CCCCSc3cccc4c3CN(C3CCC(=O)NC3=O)C4=O)CC2)ccc1Nc1ncc(Cl)c(Nc2ccccc2P(C)(C)=O)n1 (stereo not drawn) [SIAIS219136, N-(1-(4-((5-chloro-4-((2-(dimethylphosphoryl)phenyl)amino)pyrimidin-2-yl)amino)-3-methoxyphenyl)piperidin-4-yl)-5-((2-(2,6-dioxopiperidin-3-yl)-1-oxoisoindolin-4-yl)thio)pentanamide] | 0.43 ± 0.09
14 | COc1cc(N2CCC(NC(=O)CCCCCSc3cccc4c3CN(C3CCC(=O)NC3=O)C4=O)CC2)ccc1Nc1ncc(Cl)c(Nc2ccccc2P(C)(C)=O)n1 (stereo not drawn) [SIAIS219137, N-(1-(4-((5-chloro-4-((2-(dimethylphosphoryl)phenyl)amino)pyrimidin-2-yl)amino)-3-methoxyphenyl)piperidin-4-yl)-6-((2-(2,6-dioxopiperidin-3-yl)-1-oxoisoindolin-4-yl)thio)hexanamide] | 0.48 ± 0.05
15 | COc1cc(N2CCC(NC(=O)CCCCCCSc3cccc4c3CN(C3CCC(=O)NC3=O)C4=O)CC2)ccc1Nc1ncc(Cl)c(Nc2ccccc2P(C)(C)=O)n1 (stereo not drawn) [SIAIS219138, N-(1-(4-((5-chloro-4-((2-(dimethylphosphoryl)phenyl)amino)pyrimidin-2-yl)amino)-3-methoxyphenyl)piperidin-4-yl)-7-((2-(2,6-dioxopiperidin-3-yl)-1-oxoisoindolin-4-yl)thio)heptanamide] | 0.29 ± 0.01
16 | COc1cc(N2CCC(NC(=O)COCCSc3cccc4c3CN(C3CCC(=O)NC3=O)C4=O)CC2)ccc1Nc1ncc(Cl)c(Nc2ccccc2P(C)(C)=O)n1 (stereo not drawn) [SIAIS219139, N-(1-(4-((5-chloro-4-((2-(dimethylphosphoryl)phenyl)amino)pyrimidin-2-yl)amino)-3-methoxyphenyl)piperidin-4-yl)-2-(2-((2-(2,6-dioxopiperidin-3-yl)-1-oxoisoindolin-4-yl)thio)ethoxy)acetamide] | 1.08 ± 0.1
17 | COc1cc(N2CCC(NC(=O)COCCOCCSc3cccc4c3CN(C3CCC(=O)NC3=O)C4=O)CC2)ccc1Nc1ncc(Cl)c(Nc2ccccc2P(C)(C)=O)n1 (stereo not drawn) [SIAIS219140, N-(1-(4-((5-chloro-4-((2-(dimethylphosphoryl)phenyl)amino)pyrimidin-2-yl)amino)-3-methoxyphenyl)piperidin-4-yl)-2-(2-(2-((2-(2,6-dioxopiperidin-3-yl)-1-oxoisoindolin-4-yl)thio)ethoxy)ethoxy)acetamide] | 5.08 ± 0.62
18 | COc1cc(N2CCC(NC(=O)COCCOCCOCCSc3cccc4c3CN(C3CCC(=O)NC3=O)C4=O)CC2)ccc1Nc1ncc(Cl)c(Nc2ccccc2P(C)(C)=O)n1 (stereo not drawn) [SIAIS219141, N-(1-(4-((5-chloro-4-((2-(dimethylphosphoryl)phenyl)amino)pyrimidin-2-yl)amino)-3-methoxyphenyl)piperidin-4-yl)-2-(2-(2-(2-((2-(2,6-dioxopiperidin-3-yl)-1-oxoisoindolin-4-yl)thio)ethoxy)ethoxy)ethoxy)acetamide] | 5 ± 0.71
19 | COc1cc(N2CCC(NC(=O)COCCOCCOCCOCCSc3cccc4c3CN(C3CCC(=O)NC3=O)C4=O)CC2)ccc1Nc1ncc(Cl)c(Nc2ccccc2P(C)(C)=O)n1 (stereo not drawn) [SIAIS219142, N-(1-(4-((5-chloro-4-((2-(dimethylphosphoryl)phenyl)amino)pyrimidin-2-yl)amino)-3-methoxyphenyl)piperidin-4-yl)-14-((2-(2,6-dioxopiperidin-3-yl)-1-oxoisoindolin-4-yl)thio)-3,6,9,12-tetraoxatetradecan-1-amide] | 7 ± 1
20 | COc1cc(N2CCC(NC(=O)COCCOCCOCCOCCOCCSc3cccc4c3CN(C3CCC(=O)NC3=O)C4=O)CC2)ccc1Nc1ncc(Cl)c(Nc2ccccc2P(C)(C)=O)n1 (stereo not drawn) [SIAIS219143, N-(1-(4-((5-chloro-4-((2-(dimethylphosphoryl)phenyl)amino)pyrimidin-2-yl)amino)-3-methoxyphenyl)piperidin-4-yl)-17-((2-(2,6-dioxopiperidin-3-yl)-1-oxoisoindolin-4-yl)thio)-3,6,9,12,15-pentaoxaheptadecan-1-amide] | 5.53 ± 1.28
21 | CCc1cc2c(cc1N1CCC(N3CCN(C(=O)COCCSc4cccc5c4CN(C4CCC(=O)NC4=O)C5=O)CC3)CC1)C(C)(C)c1[nH]c3cc(C#N)ccc3c1C2=O (stereo not drawn) [SIAIS249066, 8-(4-(4-(2-(2-((2-(2,6-dioxopiperidin-3-yl)-1-oxoisoindolin-4-yl)thio)ethoxy)acetyl)piperazin-1-yl)piperidin-1-yl)-9-ethyl-6,6-dimethyl-11-oxo-6,11-dihydro-5H-benzo[b]carbazole-3-carbonitrile] | 0.17 ± 0.14
